# T1: Creatine transporter (CRT) (Homo sapiens, UniProt P48029)
# T1 sequence (P48029 1-635): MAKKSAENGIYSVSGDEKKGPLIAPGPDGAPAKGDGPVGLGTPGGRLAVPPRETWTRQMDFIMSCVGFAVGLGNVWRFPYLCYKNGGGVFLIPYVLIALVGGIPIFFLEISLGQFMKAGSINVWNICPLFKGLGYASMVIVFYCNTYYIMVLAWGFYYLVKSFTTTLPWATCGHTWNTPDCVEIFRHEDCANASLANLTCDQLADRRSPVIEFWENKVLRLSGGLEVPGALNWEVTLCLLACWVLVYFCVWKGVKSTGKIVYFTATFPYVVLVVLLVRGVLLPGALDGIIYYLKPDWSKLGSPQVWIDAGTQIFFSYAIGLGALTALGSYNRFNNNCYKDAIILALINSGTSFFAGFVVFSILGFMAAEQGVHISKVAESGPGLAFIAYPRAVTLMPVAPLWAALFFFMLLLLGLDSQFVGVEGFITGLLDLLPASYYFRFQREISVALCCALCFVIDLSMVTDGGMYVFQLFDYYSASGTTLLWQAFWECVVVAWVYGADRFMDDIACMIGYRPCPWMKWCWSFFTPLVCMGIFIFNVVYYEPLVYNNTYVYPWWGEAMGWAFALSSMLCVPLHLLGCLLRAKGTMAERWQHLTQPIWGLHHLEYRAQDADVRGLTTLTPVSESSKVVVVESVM
# Experiments:
# [1] = target: T1, Creatine transporter (CRT); assay: [14C]cyclocreatine / [14C]creatine uptake by HEK293 cells; type: cell-based; set-up: endogenous in cells; host or cells: HEK293 cells; details: for inhibition of uptake by CRT-targeting siRNA: CRT protein expression reduced by 42%, substrate 9 µM
# Method: (§1) Methods: Cells were incubated with [14C]cyclocreatine (9 µM) and [14C]creatine (9 µM) for the indicated times at 37 °C in the presence or absence of several compounds. siRNAs were transfected by lipofection. Protein and mRNA expressions were quantified by LC–MS/MS and qPCR, respectively.
# [2] = target: T1, Creatine transporter (CRT); assay: [14C]cyclocreatine / [14C]creatine uptake by hCMEC/D3 cells; type: cell-based; set-up: hCMEC/D3 cells, which are immortalized human brain microvascular endothelial cells; endogenous in cells; host or cells: hCMEC/D3 cells; details: for inhibition of uptake by CRT-targeting siRNA: CRT mRNA expression reduced by 97%, substrate 9 µM; for suppression of [14C]cyclocreatine uptake: [14C]cyclocreatine 9 µM, 37 °C
# Method: as §1
# [3] = tested on: Rat primary brain endothelial, pericyte and astroglial cell cultures; assay: Kainate damage and drug protection in BBB culture model
# From the text: In animal models of epilepsy induced by kainic acid, the primary ligand of ionotropic kainate receptors, BBB damage occurs, but the effect of kainate on brain endothelial cells has not been studied. Our aim was to examine the presence of kainate receptors and the effects of kainate on cultured cells of the BBB and to test anti-inflammatory and antioxidant drugs to protect against kainate-induced changes. Rat primary brain endothelial, pericyte and astroglial cell cultures were used to study cell viability by impedance measurement and cell morphology. BBB permeability was measured on a model made from the three cell types. The production of nitrogen monoxide and reactive oxygen species was followed by fluorescent probes. Four drugs were tested to protect against kainate-induced changes. The mRNA expression of kainate receptors and nitric oxide synthases (NOS) were studied by RT-PCR.
# [4] = tested on: murine brain microvascular endothelial cells (MBMECs); assay: NMDAR modulators on brain endothelial cells (electrophysiology, Ca2+, TEER, migration); type: cell-based; details: for NMDAR mediated current: whole cell recorded MBMECs, compared to control conditions
# From the text: In neurodegenerative disorders, concentrations of extracellular neurotransmitter in the central nervous system (CNS) are out of balance. Glutamatergic dysregulation and extracellular glycine accumulation cause excitotoxicity and subsequent neuronal death. This process is largely mediated by N-methyl-D-aspartate receptor (NMDAR) activation. NMDARs are ionotropic receptors permeable for positive ions. In the CNS, they are composed by two obligatory NR1 subunits containing glycine binding sites and two NR2 subunits that are activated by glutamate. NR3 subunits which are less abundant in the CNS are activated by glycine. While neuronal NMDARs are well studied, their functional role on endothelial cells (ECs) is still to be investigated. ECs of the Blood Brain Barrier (BBB) are exposed to the extracellular milieu of the CNS and therefore to high concentrations of neurotransmitters. In this study, we investigated the effect of NMDAR modulators on murine brain microvascular endothelial cells (MBMECs).
# [5] = tested on: transgenic hAPP mice; assay: PCN or NAC purified diet in transgenic hAPP mice; type: in vivo
# From the text: Methods: To test our hypothesis, transgenic hAPP mice received a purified diet containing the PXR activator pregnenolone 16α-carbonitrile (PCN) or the ROS scavenger N-acetyl-L-cysteine (NAC). We assessed P-gp protein expression and transport activity, Aβ brain and plasma levels, capillary leakage, renal function and cognition to test the PCN or NAC effect in hAPP mice.
# [6] = tested on: astrocytes; assay: Uptake in astrocytes cultured on the basolateral (brain) side; type: cell-based; details: rat astrocytes below bovine brain endothelial cells; fluorophore-labelled
# Method: The propensity of Tat to facilitate brain endothelial cell adherence -and uptake as well as BBB permeation of NR2B9c and the N-dimer was assessed using primary bovine brain endothelial cells cultured in contact with rat astrocytes4.
# [7] = Chemical stability in cell media supplemented with 10% FBS by UPLC; type: in vitro ADME; details: for % of initial remained intact: UPLC, cell media supplemented with 10% FBS, 4 h incubation, fluorophore-labelled constructs
# From the text: All constructs were stable in PBS.
# [8] = tested on: primary mouse brain microvascular endothelial cells (pMBMECs); assay: Effector OT-I CD8+ T-cell interaction with antigen-pulsed pMBMECs under physiological flow; type: cell-based; details: SIINFEKL and MHC class I on WT pMBMECs
# From the text: Methods and results: We used primary mouse brain microvascular endothelial cells (pMBMECs) as an in vitro model for BBB. […] We next investigated, if naive CD8+ T cells can interact with pMBMECs under physiological flow. […] This prompted us to investigate how endothelial Ag-presentation contributes to the interaction of effector OT-I CD8+ T-cells with pMBMECs under physiological flow.
# [9] = substrate: NC1=NCCN1CC(=O)O; assay: [14C]cyclocreatine / [14C]creatine uptake by HEK293 cells; type: cell-based; details: other: HEK293 cells, 37 °C, saturable kinetics
# Method: as §1
# [10] = 12-month old mice treated for 3 weeks
molecule,measurement,setting,value
"NC1=NCCN1CC(=O)O [[14C]cyclocreatine, cyclocreatine]",inhibition of uptake by CRT-targeting siRNA,[1]; HEK293 cells,33%
same,inhibition of uptake by CRT-targeting siRNA,[2],70%
"NC(N)=NCCC(=O)O [GPA, guanidinopropionic acid]",inhibition of [14C]cyclocreatine uptake,"[1]; HEK293 cells, inhibitor 10 mM, [14C]cyclocreatine 9 µM, 37 °C",96%
same,suppression of [14C]cyclocreatine uptake,[2],91%
"C=C(C)[C@H]1CN[C@H](C(=O)O)[C@H]1CC(=O)O [Kainate, kainic acid]",production of nitric oxide (NO) in brain endothelial cells,[3]; fluorescent probes,increased
same,viability or morphology of astroglial cells,[3]; rat primary astroglial cells,unchanged
same,effect on brain endothelial cells (viability by impedance),"[3]; rat primary brain endothelial cells, concentration- and time-dependent",damaged
O=C(O)c1cccnc1C(=O)O [quinolinic acid],transendothelial electrical resistance (TEER),[4]; MBMECs,No changes
same,NMDAR mediated current,[4],did neither evoke any
CC1=NN(c2ccccc2)C(=O)C1 [edaravone],protection against the reduced cell viability and increased permeability caused by kainate,[3]; kainate-treated cells / BBB model,protected
"CC(=O)[C@H]1[C@H](C#N)C[C@H]2[C@@H]3CC=C4C[C@@H](O)CC[C@]4(C)[C@H]3CC[C@@]21C [PCN, pregnenolone 16α-carbonitrile]",Aβ brain levels,[5]; hAPP mice fed for 21 months,lowered
same,P-gp protein expression and transport activity,[5]; hAPP mice fed for 21 months,restored
same,cognition,[5]; hAPP mice fed for 21 months,improved
NCC(=O)O [glycine],MBMEC migration,[4]; MBMECs,impaired
same,intracellular Ca2+ levels,[4]; MBMECs,increase
same,transendothelial electrical resistance (TEER),[4]; MBMECs,reduced
same,NMDAR mediated current,[4],bigger
"Tat: 11-residue cationic peptide, tool to facilitate delivery of peptide drug entities into cells and across barriers",uptake in astrocytes cultured on the basolateral (brain) side,[6],observed
same,% of initial remained intact,[7],~ 50%
same,integrity in cell media (in words),"[7]; cell media, conclusion statement",extensive degradation
N[C@@H](CCC(=O)O)C(=O)O [glutamate],transendothelial electrical resistance (TEER),[4]; MBMECs,No changes
same,NMDAR mediated current,[4],did neither evoke any
SIINFEKL [cognate peptide antigen for OT-I CD8+ T cells],T-cell crawling,[8],prohibited
same,T-cell migration rates,[8],decreased
CN(CC(=O)O)C(=N)N [creatine],inhibition at 10000 µM,"[1]; HEK293, read-out: inhibition of [14C]cyclocreatine uptake",97%
same,inhibition of uptake by CRT-targeting siRNA,[1]; HEK293 cells,37%
same,inhibition of uptake by CRT-targeting siRNA,[2],63%
same,suppression of [14C]cyclocreatine uptake,[2],91%
"CC(=O)N[C@@H](CS)C(=O)O [NAC, N-acetyl-L-cysteine]",barrier leakage,[5]; [10],reduced
same,renal function,[5]; [10],improved
"NR2B9c: clinically relevant peptide drug entity (1 kDa) (KLSSIESDV; UniProt Q13224 1476-1484, looked up, fragment)",uptake in astrocytes cultured on the basolateral (brain) side,[6],not
same,% of initial remained intact,[7],~ 90%
"Creatine transporter (CRT) (Homo sapiens) (protein, endogenous in cells; host or cells: HEK293 cells) MAKKSAENGIYSVSGDEKKGPLIAPGPDGAPAKGDGPVGLGTPGGRLAVPPRETWTRQMDFIMSCVGFAVGLGNVWRFPYLCYKNGGGVFLIPYVLIALVGGIPIFFLEISLGQFMKAGSINVWNICPLFKGLGYASMVIVFYCNTYYIMVLAWGFYYLVKSFTTTLPWATCGHTWNTPDCVEIFRHEDCANASLANLTCDQLADRRSPVIEFWENKVLRLSGGLEVPGALNWEVTLCLLACWVLVYFCVWKGVKSTGKIVYFTATFPYVVLVVLLVRGVLLPGALDGIIYYLKPDWSKLGSPQVWIDAGTQIFFSYAIGLGALTALGSYNRFNNNCYKDAIILALINSGTSFFAGFVVFSILGFMAAEQGVHISKVAESGPGLAFIAYPRAVTLMPVAPLWAALFFFMLLLLGLDSQFVGVEGFITGLLDLLPASYYFRFQREISVALCCALCFVIDLSMVTDGGMYVFQLFDYYSASGTTLLWQAFWECVVVAWVYGADRFMDDIACMIGYRPCPWMKWCWSFFTPLVCMGIFIFNVVYYEPLVYNNTYVYPWWGEAMGWAFALSSMLCVPLHLLGCLLRAKGTMAERWQHLTQPIWGLHHLEYRAQDADVRGLTTLTPVSESSKVVVVESVM",Km,[9],188 µM
same,Vmax,[9],273 pmol/mg protein/min
